Test results reported in patent EP0306904A2, “Phosphoric acid diesters and salts thereof” (Senju Pharmaceutical Co., Ltd., priority 1987, dated 1989).

Tests used:
[1] = tested on: mixture micelles, which were prepared from phospholipid (egg lecithin) and ethanol; test: Anti-oxidative activity: oxidation of mixture micelles (egg lecithin and ethanol) by ferrous-ion/ascorbic acid, thiobarbituric acid readout; assay type: biochemical; conditions: for Rate of inhibition (%): 25 °C, 15 min, ferrous sulfate/sodium ascorbate; for inhibition of oxidation: summary in words of the micelle oxidation results
Description: Anti-oxidative activity of the compounds prepared in example 1 and example 4 were determined using, as an index, oxidation of mixture micelles, which were prepared from phospholipid (egg lecithin) and ethanol, by ferrous-ion/ascorbic acid
To a solution of approx. 78 mg of egg lecithin in 2 ml of ethanol was added gradually 5 mM HEPES buffer solution (pH 7.2), under sonication (50 W) and ice-cooling, to make a 100-ml suspension. To 1,000 µ l of the suspension were added 200 µ l of 2.6 x 10⁻⁴ M solution of one of the test compounds in 50 v/v % ethanol, 50 µ l of 5.0 x 10⁻⁵ M sodium ascorbate solution in water and 50 µ l of 2.5 x 10⁻⁶ M ferrous sulfate solution in water. The mixture was placed in a water bath at 25 °C for 15 min for oxidation. Instantly after the reaction, 50 µ l of 0.1 % hydroquinone solution in ethanol was added to stop the reaction. To the mixture were added 200 µ l of 20 w/v % trichloroacetic acid and 2,000 µ l of 50 v/v % acetic acid containing thiobarbituric acid (Merck) at the concentration of 0.35 %, followed by heating for 15 min under reflux at 100 °C. After cooling, absorp tion within the range of 450-600 nm was measured by spectrophotography, within which range increase in absorbance at approx. 530-540 nm was determined. […]

lens = test: Anti-oxidative activity in a model employing UV-induced oxidation of the lens
[2] = Final concentration 4.0 x 10⁻⁵ (unit not given; M)
[3] = Final concentration 4.0 x 10⁻⁶ (unit not given; M)

Structure (SMILES) | Rate of inhibition (%) [1, 2] [%] | Rate of inhibition (%) [1, 3] [%] | inhibition of oxidation [1] | inhibition of accumulation of malonedialdehyde (lens)
Cc1c(C)c2c(c(C)c1OP(=O)([O-])OC1=C(O)[C@@H]([C@@H](O)CO)OC1=O)CCC(C)(CCCC(C)CCCC(C)C)O2.[K+] (stereo partly drawn) [Example 1, potassium salt of phosphoric acid (L-ascorbic acid-2-0)(2,5,7,8-tetramethyl-2-(4,8-dimethylnonyl)chromanyl-6) ester] | 94.44 | 89.57 | nearly complete inhibition of oxidation | significant inhibition
Cc1c(C)c2c(c(C)c1OP(=O)([O-])OC1=C(O)[C@@H]([C@@H](O)CO)OC1=O)CCC(C)(CCCC(C)CCCC(C)CCCC(C)CCCC(C)C)O2.[K+] (stereo partly drawn) [Example 4, potassium salt of phosphoric acid (L-ascorbic acid-2-0)(2,5,7,8-tetramethyl-2-(4,8,12,16-tetramethylheptadecyl)chromanyl-6) ester] | 99.90 | 95.22 | nearly complete inhibition of oxidation | significant inhibition
